Earlier results on 1 compound are cited in patent US7700579B2, “Process for the preparation of piroxicam: b-cyclodextrin inclusion compounds” (Chiesi Farmaceutici S.p.A., priority 2002, dated 2010).

For this data set the following is noted: pH 5, 37° C.

For `CN1C(C(=O)Nc2ccccn2)=C(O)c2ccccc2S1(=O)=O` [Piroxicam], the solubility in water is 0.003%.
